# In patent US20120196901A1, “TERTIARY AMIDE OREXIN RECEPTOR ANTAGONISTS” (Merck Sharp & Dohme Corp., priority 2009, published 2012):
# Target: T1, OX2R (Homo sapiens, UniProt O43614)
# T1 construct: expressed in transfected cells; host or cells: CHO cells (membranes)
# T1 sequence (O43614 1-444): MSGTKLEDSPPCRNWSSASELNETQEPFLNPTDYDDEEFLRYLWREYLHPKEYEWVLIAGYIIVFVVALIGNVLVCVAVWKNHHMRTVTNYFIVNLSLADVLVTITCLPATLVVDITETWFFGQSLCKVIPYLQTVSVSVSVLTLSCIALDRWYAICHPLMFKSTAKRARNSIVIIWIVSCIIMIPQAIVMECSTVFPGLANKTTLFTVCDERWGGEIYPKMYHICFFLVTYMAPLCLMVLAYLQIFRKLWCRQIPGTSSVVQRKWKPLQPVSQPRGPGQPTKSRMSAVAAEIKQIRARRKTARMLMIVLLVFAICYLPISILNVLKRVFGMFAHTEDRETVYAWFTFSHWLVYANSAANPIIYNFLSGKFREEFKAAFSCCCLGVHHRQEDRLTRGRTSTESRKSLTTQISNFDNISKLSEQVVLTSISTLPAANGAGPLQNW
# Test: radioligand binding assay, membranes prepared from CHO cells expressing the OX2 receptor
# Description: The utility of the compounds in accordance with the present invention as orexin receptor OX1R and/or OX2R antagonists may be readily determined without undue experimentation by methodology well known in the art, including the “FLIPR Ca^2+ Flux Assay” (Okumura et al., Biochem, Biophys. Res. Comm. 280:976-981, 2001). In a typical experiment the OX1 and OX2 receptor antagonistic activity of the compounds of the present invention was determined in accordance with the following experimental method. […] Within the Fluorescent Imaging Plate Reader (FLIPR, Molecular Devices), test compounds are added to the plate in a volume of 25 ul, incubated for 5 min and finally 25 ul of agonist is added. Fluorescence is measured for each well at 1 second intervals for 5 minutes and the height of each fluorescence peak is compared to the height of the fluorescence peak induced by 70 pM Ala-6,12 orexin-A with buffer in place of antagonist. For each antagonist, […] value (the concentration of compound needed to inhibit 50% of the agonist response) is determined. Alternatively, compound potency can be assessed by a radioligand binding assay (described in Bergman et. al. Bioorg. Med. Chem. Lett. 2008, 18, 1425-1430) in which the inhibition constant (ki) is determined in membranes prepared from CHO cells expressing either the OX1 or OX2 receptor. […]
row,Ki [pM],SMILES
1,270,"COc1ccc(CCN(C(=O)c2cccc(C)n2)C(C)CCc2ccccc2)nc1OC (centres unmarked) [Cmp 2-3, N-[2-(5,6-Dimethoxy-2-pyridinyl)ethyl]-6-methyl-N-(1-methyl-3-phenylpropyl)-2-pyridinecarboxamide]"
2,140,"COc1cccc(C(=O)N(CCc2ccc(OC)c(OC)n2)C(C)CCc2ccccc2)n1 (centres unmarked) [Cmp 2-13, N-[2-(5,6-dimethoxypyridin-2-yl)ethyl]-6-methoxy-N-(4-phenylbutan-2-yl)pyridine-2-carboxamide]"
